Results as given in patent US10081655B2, “Cationic antibacterial composition” (priority 2011, dated 2018).
pEC50: −log10 of the molar value. In brackets after ≈: the same amount, converted by molar mass.

Key:
E. coli [1] = test: MIC, micro-dilution broth; type: cell-based
Protocol: (§1) All cationic antibacterial compounds and control (vancomycin) were assayed in a micro-dilution broth format. Stock solutions were made by serially diluting the compounds using autoclaved Millipore water or broth media. The antibacterial activity of the compounds was determined against Methicillin sensitive S. aureus (MSSA), Methicillin resistant S. aureus (MRSA), vancomycin sensitive Enterococcus faecium (VSE), vancomycin resistant Enterococcus faecium (VRE), and E. coli. Bacteria, to be tested, were grown for about 10 h in the suitable media, MSSA and MRSA were grown in Yeast-dextrose broth (about 1 g of beef extract, about 2 g of yeast extract, about 5 g of peptone and about 5 g of NaCl in about 1000 mL of sterile distilled water (pH-7)). For solid media, about 5% agar was used along with above mentioned composition. E. coli was cultured in Luria Bertani broth (about 10 g of tryptone, about 5 g of yeast extract, and about 10 g of NaCl in 1000 mL of sterile distilled water, pH −7). VSE and VRE were cultured in Brain Heart Infusion broth (Himedia). The bacterial samples were freeze dried and stored at about −80° C. About 5 μl of these stocks were added to about 3 ml of the nutrient broth and the culture was grown for about 6 h at about 37° C. prior to the experiments. This 6 h grown culture gives about 10^9 cfu/mL for MSSA and MRSA, while it was about 10^8 cfu/mL for E. coli, 10^9 cfu/mL for both VSE and VRE and this was determined by spread plating method. The 6 h grown culture was diluted to give effective cell concentration of about 10^5 cfu/mL which was then used for determining MIC.
(§2) Compounds were serially diluted, in sterile water (2 fold dilution is employed) in a way that the working concentration was about 10 μM for MSSA MRSA, and VSE while for VRE and E. coli it was about 100 μM. About 50 μL of these serial dilutions were added to the wells of 96 well plate followed by the addition of about 150 μL of bacterial solution. The plates were then incubated at about 37° C., 150 rpm in the incubator and O.D at 600 nm was recorded at an interval of about 10 h and about 24 h using TECAN (Infinite series, M200 pro) Plate Reader. Each concentration had triplicate values and the whole experiment was done at least twice and the MIC value was determined by taking the average of triplicate O. D. values for each concentration and plotting it against concentration. The data was then subjected to sigmoidal fitting. From the curve the MIC value was determined, as the point in the curve where the O.D. was similar to that of control having no bacteria.

E. coli [2] = test: MBC by plating; type: cell-based
Protocol: as §1, §2
(§3) MBC values were determined by plating about 50 μl of the solution and later counting the colonies after their development.

[3] = test system: Vancomycin restant S. aureus (Clinical isolate, MMC-20, VanA & VanB); test: MIC, broth dilution method in Mueller-Hinton broth; type: cell-based; details: VRSA
Protocol: For vancomycin resistant staphylococcus aureus (VRSA; clinical isolate MMC-20), the MIC of compounds was determined by broth dilution method using Mueller-Hinton broth (MHB), as recommended by the National Committee for Clinical Laboratory Standards. About 5×10^4 bacterial cells in MHB culture were treated with different concentrations of compounds, and shaken for 16 h at 37° C. The minimum concentration at which there was no visible turbidity was taken as the MIC of that compound.

[4] = test system: Methicillin resistant S. aureus (ATCC 33591); test: microbe, parasite or virus in culture; type: cell-based
Protocol: For solid media, about 5% agar was used along with above mentioned composition. […] VSE and VRE were cultured in Brain Heart Infusion broth (Himedia). […] The 6 h grown culture was diluted to give effective cell concentration of about 10^5 cfu/mL which was then used for determining MIC.
About 50 μL of these serial dilutions were added to the wells of 96 well plate followed by the addition of about 150 μL of bacterial solution. […] Each concentration had triplicate values and the whole experiment was done at least twice and the MIC value was determined by taking the average of triplicate O. D. values for each concentration and plotting it against concentration. The data was then subjected to sigmoidal fitting.

[5] = test system: Vancomycin resistant E. faecium (VanA, ATCC 51559); test: MIC, micro-dilution broth; type: cell-based
Protocol: as §1, §2

[6] = test system: Vancomycin sensitive E. faecium (ATCC 19634); test: MIC, micro-dilution broth; type: cell-based
Protocol: as §1, §2

[7] = test system: Methicillin sensitive S. aureus (MTCC 737); test: MIC, micro-dilution broth; type: cell-based
Protocol: as §1, §2

MSSA [8] = test: MBC by plating; type: cell-based, S. aureus; details: against MSSA
Protocol: as §1, §2, §3

Cytotoxicity assay (MTT) = type: cell-based; details: human, HeLa cells (cervical cancer cells), about 24 h
Protocol: Cytotoxity of compounds 4 and 7 was determined against HeLa cell line following well known MTT assay. Cells were grown in DMEM at about 37° C. in a humidified-air atmosphere (about 5% CO2/95% air) in DMEM complete medium, supplemented with about 10% heat inactivated Fetal Bovine Serum and about 100 units/mL penicillin G, about 100 µg/mL streptomycin. Cells were seeded into 96 well plate and kept under the above mentioned conditions till they attained about 80% confluency. Compounds were serially diluted, in sterile water (2 fold dilution is employed) in a way that the working concentration was 100 μM. 50 μL of these dilutions were added to the cells and the volume was made up to 200 μL using DMEM medium. Cells were kept under observation for about 24 h. Later the medium was removed, cells were washed thoroughly with PBS and about 100 μL of MTT solution (about 5 mg/mL) was added to the wells. After about 3 h the MTT was removed, cells were lysed using DMSO and the plate was read at about 570 nm. One containing no compound (untreated cell) and other with about 10 vol % Triton-X 100 solution were also used. Percentage of cell survival was calculated using the formula: (Atreated cells−Atriton-X cells)/(Auntreated cell−Atriton-X cells)×100
A plot of % of survival against concentration of compound was plotted using Origin Pro software.

MRSA [9] = test: MBC by plating; type: cell-based, S. aureus; details: Staphylococcus aureus; against MRSA
Protocol: as §1, §2, §3

[10] = test system: Human Red Blood Cells (RBC); test: Hemolytic assay; type: cell-based; details: Erythrocyte, 1 h, about one hour at about 37° C., read-out: EC50 (hemolysis)
Protocol: Fresh human blood was collected under aseptic conditions in heparinised vacutainers. vancomycin derivatives are serially diluted, in sterile water (about 2 fold dilution is employed) in a way that the working concentration is about 100 μM. Heparinised blood was centrifuged down at about 3500 rpm for about 5 min in order to separate Red Blood Cells and blood plasma. RBC's are then washed couple of times with PBS pH-7.4 and suspended in PBS such that the final concentration of RBC was about 5 vol %. About 150 μL of this is mixed with about 50 μL of serially diluted compound in 96 well plate. The plate was then incubated at about 37° C. for about one hour. Later, the plate was centrifuged down at about 3500 rpm for about 5 min. The lysed RBC releases haemoglobin which was present in the supernatant. The supernatant thus was pipetted out into another fresh 96 well plate and the absorbance was measured at about 540 nm.
Percentage of hemolysis was determined as (A−A0)/(Atotal−A0)×100, where A is the absorbance of the test well, A0 the absorbance of solution without compound, and Atotal the absorbance of 100% hemolysis wells (with Triton X-100), all at 540 nm.

MSSA [11] = test: Cytoplasmic membrane depolarization assay (diSC3(5)); type: cell-based, S. aureus; details: concentration as high as 40 μM
Protocol: Midlog phase bacterial cells were harvested, washed with about 5 mM HEPES and about 5 mM glucose and resuspended in about 5 mM glucose, about 5 mM HEPES buffer and about 100 mM KCl solution in 1:1:1 ratio (about 10^8 cfu/ml). Measurements were made in a cuvette containing about 2 ml of bacterial suspension and about 2 μM diSC3(5). The fluorescence of the dye was monitored for about 10 min (MSSA) to about 20 min (E. coli) at R.T. spectrofluorometer at excitation wavelength of about 622 nm and emission wavelength of about 670 nm. Dye uptake, and resultant self quenching, was modulated by the membrane potential. After reaching the maximum uptake of the dye by bacteria, which was indicated by a minimum in dye fluorescence, (after about 10 min for S. aureus and about 20 min for E. coli) compounds (4 and 7) and control were added to the cells, and the decrease in potential was monitored by the increase in fluorescence for further about 10 min.

MRSA [12] = test: Time-kill assay; type: cell-based, S. aureus; details: 1×MIC, 6×MIC, 12×MIC, 0-3 h
Protocol: The bactericidal activity was assessed by the kinetics or the rate at which it affects the killing action of the compound. Briefly MRSA grown in Yeast-Dextrose broth. […] Bacterial suspension containing specified concentrations of the compound along with negative control (which contains only 0.9% Saline) was incubated at 37° C. with shaking. Aliquots (20 μl) were removed from the cultures at 0, 1, 2 and 3 h and were serially diluted 10-fold in 0.9% saline and plated onto sterile Yeast-Dextrose agar medium. The number of viable cells was determined by plating the 10-fold serial dilution of each sample onto Yeast-dextrose agar medium. Plates were then incubated for 24 h at 37° C., CFU was counted and the total bacterial log10 CFU/ml was determined.

SMILES: CCCCCCCCCCCCCC[N+](C)(C)CCCNC(C)=O [Compound 14, N′-Acetyl N-tetradecyl N,N dimethyl 1,3 propanediamine]
- MIC (E. coli [1]; against E. coli): >100 µM
- MBC (E. coli [2]; against E. coli): >100 µM

SMILES: CN[C@H](CC(C)C)C(=O)N[C@H]1C(=O)N[C@@H](CC(N)=O)C(=O)N[C@H]2C(=O)N[C@H]3C(=O)N[C@H](C(=O)N[C@H](C(=O)NCCCN(C)C)c4cc(O)cc(O)c4-c4cc3ccc4O)[C@H](O)c3ccc(c(Cl)c3)Oc3cc2cc(c3O[C@@H]2O[C@H](CO)[C@@H](O)[C@H](O)[C@H]2O[C@H]2C[C@](C)(N)[C@H](O)[C@H](C)O2)Oc2ccc(cc2Cl)[C@H]1O [Compound 1]
- MIC ([3]; clinical isolate MMC-20): 0.53 µM (≈ 0.813 µg/mL)
- MIC ([4]; MRSA, ATCC 33591): 0.61 µM (≈ 0.935 µg/mL)
- MIC ([5]; VRE, E. faecium VanA ATCC 51559): >100 µM
- MIC ([6]; VSE, E. faecium ATCC 19634): 0.63 µM (≈ 0.966 µg/mL)
- MIC (E. coli [1]; against E. coli): 50 µM (≈ 76.7 µg/mL)
- MIC ([7]; MSSA, S. aureus MTCC 737): 0.62 µM (≈ 0.951 µg/mL)
- MBC (E. coli [2]; against E. coli): 50 µM (≈ 76.7 µg/mL)
- MBC (MSSA [8]): 1.25 µM (≈ 1.92 µg/mL)

SMILES: CN[C@H](CC(C)C)C(=O)N[C@H]1C(=O)N[C@@H](CC(N)=O)C(=O)N[C@H]2C(=O)N[C@H]3C(=O)N[C@H](C(=O)N[C@H](C(=O)O)c4cc(O)cc(O)c4-c4cc3ccc4O)[C@H](O)c3ccc(c(Cl)c3)Oc3cc2cc(c3O[C@@H]2O[C@H](CO)[C@@H](O)[C@H](O)[C@H]2O[C@H]2C[C@](C)(N)[C@H](O)[C@H](C)O2)Oc2ccc(cc2Cl)[C@H]1O [Vancomycin]
- MIC ([3]; Staphylococcus aureus): > 86 µM
- MIC ([4]; Staphylococcus aureus, ATCC 33591 / MRSA): 0.63 µM (≈ 0.913 µg/mL)
- MIC ([5]; Enterococcus faecium, ATCC 51559 / VRE): > 100 µM
- MIC ([6]; Enterococcus faecium, ATCC19634): 0.6 µM (≈ 0.87 µg/mL)
- MIC (E. coli [1]; Escherichia coli): 80 to 100 µM (≈ 116 to 145 µg/mL)
- MIC ([7]; Staphylococcus aureus, MSSA / MTCC737): 0.63 µM (≈ 0.913 µg/mL)
- MBC (E. coli [2]; Escherichia coli): > 100 µM
- MBC (E. coli [2]; against E. coli, listed as Control): >100 µM
- EC50 at 24 h (Cytotoxicity assay (MTT)): > 100 µM
- MBC (MRSA [9]): 2.5 µM (≈ 3.62 µg/mL)
- MBC (MSSA [8]; Staphylococcus aureus, MSSA): ~2.5 µM (≈ 3.62 µg/mL)
- MBC (MSSA [8]; listed as Control): 2.5 µM (≈ 3.62 µg/mL)
- pEC50 [10]: < 4.00
- membrane depolarization (MSSA [11]): remained ineffective
- killing kinetics (in words) (MRSA [12]): relatively slow killing or bacteriostatic effect
